{"source": "ChEMBL document CHEMBL1142106", "about": "“Resin glycosides from the roots of Ipomoea tyrianthina and their biological activity” (2007)", "key": {"[1]": {"system": "Mus musculus", "experiment": "Anxiolytic activity of ICR mouse at 10 mg/kg, ip by EPM test relative to control", "format": "functional, organism-based", "parameters": "dose 10 mg/kg"}, "[2]": {"system": "Mus musculus", "experiment": "Anticonvulsant effect in ICR mouse assessed as mortality protection against pentylenetetrazole-induced seizures at 40 mg/kg, ip relative to control", "format": "functional", "settings": "route intraperitoneal"}, "[3]": {"system": "Ileum", "experiment": "Relaxation of spontaneous contractions of isolated rat ileum relative to control", "format": "functional, tissue-based"}, "[4]": {"system": "Ileum", "experiment": "Relaxation of spontaneous contractions of isolated rat ileum at 250 ug/mL relative to control", "format": "functional"}, "[5]": {"system": "Mus musculus", "experiment": "Anticonvulsant effect in ICR mouse assessed as mortality protection against pentylenetetrazole-induced seizures at 1.0 mg/kg, ip relative to control", "format": "functional, organism-based", "parameters": "dose 1 mg/kg"}, "[6]": {"system": "Mus musculus", "experiment": "Anxiolytic activity of ICR mouse assessed as increase in time spent in open arms at 1.0 mg/kg, ip by EPM test relative to control", "format": "functional, organism-based", "parameters": "dose 1 mg/kg"}, "[7]": {"system": "Mus musculus", "experiment": "Antidepressant activity in ICR mouse assessed as diminution of immobility time at 10 mg/kg, ip by forced swimming test relative to control", "format": "functional, organism-based", "parameters": "dose 10 mg/kg"}, "[8]": {"system": "Mus musculus", "experiment": "Anticonvulsant effect in ICR mouse assessed as mortality protection against pentylenetetrazole-induced seizures at 10 mg/kg, ip relative to control", "format": "functional", "settings": "route intraperitoneal"}}, "note": "The source made the active and inactive calls. The rule behind the calls is not given here.", "data": [{"smiles": "CCCCCC1CCCCCCCCCC(=O)O[C@@H]2[C@@H](O[C@@H]3O[C@H](C)[C@@H](O)[C@H](O)[C@H]3O)[C@H](C)O[C@@H](O[C@H]3[C@H](O[C@H]4[C@H](O1)O[C@H](C)[C@@H](O)[C@@H]4O)O[C@H](CO)[C@@H](O)[C@@H]3O)[C@@H]2OC(=O)C(C)CC", "note": "(some centres undefined) [SCAMMONIN 2]", "values": [{"measurement": "Activity", "setting": "[1]", "value": "inactive"}, {"measurement": "Activity", "setting": "[2]", "value": 66, "unit": "%"}]}, {"smiles": "C/C=C(\\C)C(=O)O[C@H]1[C@H](O)[C@@H](O)[C@H](O[C@@H]2[C@H]3OC(=O)CCCCCCCCCC(CCCCC)O[C@@H]4O[C@H](C)[C@@H](O)[C@H](O)[C@H]4O[C@@H]4O[C@H](CO)[C@@H](O)[C@H](O)[C@H]4O[C@H](O[C@H]2C)[C@@H]3OC(=O)C(C)CC)O[C@@H]1C", "note": "(some centres undefined) [SCAMMONIN 1]", "values": [{"measurement": "Activity", "setting": "[1]", "value": "inactive"}, {"measurement": "Activity", "setting": "[3]", "value": "Active"}, {"measurement": "Activity", "setting": "[2]", "value": 100, "unit": "%"}, {"measurement": "Emax at 250 µg/mL", "setting": "[4]", "value": 55.1, "unit": "%"}]}, {"smiles": "CN1C(=O)CN=C(c2ccccc2)c2cc(Cl)ccc21", "values": [{"measurement": "Activity", "setting": "[5]", "value": "Active"}, {"measurement": "Activity", "setting": "[6]", "value": "Active"}]}, {"smiles": "CCCCCC1CCCCCCCCCC(=O)O[C@@H]2[C@@H](O[C@@H]3O[C@H](C)[C@@H](OC(=O)C(C)CC)[C@H](O)[C@H]3O)[C@H](C)O[C@@H](O[C@H]3[C@H](O[C@H]4[C@H](O1)O[C@H](C)[C@@H](O)[C@@H]4O)O[C@H](CO)[C@@H](O)[C@@H]3O)[C@@H]2OC(=O)CCC", "note": "(some centres undefined) [TYRIANTHIN 6]", "values": [{"measurement": "Activity", "setting": "[7]", "value": "Active"}, {"measurement": "Activity", "setting": "[1]", "value": "inactive"}, {"measurement": "Activity", "setting": "[3]", "value": "Active"}, {"measurement": "Activity", "setting": "[2]", "value": 88, "unit": "%"}, {"measurement": "Emax at 250 µg/mL", "setting": "[4]", "value": 59.1, "unit": "%"}, {"measurement": "Activity", "setting": "[8]", "value": 33.33, "unit": "%"}]}]}
